Where two headings read alike, the source gives them in different places.
Legend:
Gastric Secretion = experiment: Inhibition of Gastric Secretion in Rat (pylorus ligated); assay type: in vivo, rat (male Charles River); details: intraduodenal, four hours after pylorus ligation
Description: Inhibition of Gastric Secretion in Rat
Male Charles River rats weighing 150-300 grams were deprived of food but not water for 18-24 hours prior to use. Water was withheld during the experiment. The rats were weighed, anesthetized with ether and the pylorus ligated according to the method of Shay, H. et al., Gastroenterol. 26, 906 (1954). Test compounds were suspended in a 0.5% aqueous solution of methylcellulose (15 cps) and administered intraduodenally (i.d.) at the time of ligation. The rats were housed two per cage and sacrificed with CO2 four hours after ligation. The stomachs were removed and contents emptied into a graduated centrifuge tube. The tubes were centrifuged, the volume of gastric juice recorded, and any samples obviously contaminated by feces, food or blood eliminated. A 1 ml aliquot of gastric juice was titrated with 0.1 N NaOH to a pH of 7.0-7.4.
The volume of gastric juice secreted, the acid concentration, and the product of the volume times the concentration, i.e., the total amount of acid secreted, were statistically compared by a student's t-test using the pooled error variance.

[1] = test system: Rabbit Isolated Parietal Cells; experiment: Inhibition of 14C-aminopyrine accumulation in stimulated rabbit isolated parietal cells; assay type: cell-based; details: Oryctolagus cuniculus, 37° C.
From the text: Pharmacology of the Ethanesulfonamide Compounds - Rabbit Isolated Parietal Cells
Parietal cells were isolated from the fundic mucosa of rabbit stomachs by a four-stage collagenase digestion Process. The supernatant fraction from the last two stages of this Process contained the individual parietal cells. This cell suspension was centrifuged and reconstituted in a modified Hank's buffer to contain 2-3×10^6 cells/ml. […] The accumulation is stimulated by histamine and is blocked by H2 antagonists. Accumulation of ^14 C-AP is also stimulated by dibutyryl cAMP (dbcAMP). The cells were incubated with 0.5×10^6 cpm ^14 C-AP, with various concentrations of histamine or dbcAMP, […] isobutylmethylxanthine, and test compound added in a 20 μl volume of buffer or dimethylsulfoxide. The flasks were incubated in a shaking water bath at 37° C. Two 0.5 ml aliquots were then taken from each flask and cell pellets were collected by centrifugation. The pellets were solubilized with Protosol (NEN) and radioactivity determined by liquid scintillation spectrometry.
The concentration of compound required to inhibit ^14 C-AP accumulation in the stimulated parietal cell by 50% (IC50) was determined.

[2] = test system: Mouse osteoblastic-line cells (MC3T3-El); experiment: Mouse Osteoblast-line Cell Proliferation (3H-thymidine); assay type: cell-based; details: 0.1% FBS
Description: Pharmacology of the Ethenesulfonyl Fluoride Compounds--In Vitro Mouse Osteoblast-line Cell Proliferation
Reagents: Mouse osteoblastic-line cells (MC3T3-El) were plated in Dulbeccos Modified Eagles Medium (DMEM) with 25 mM Hepes Buffer, L-Glutamine, D-Glucose(4.5 gm/1) supplemented with 10% fetal bovine sera, Penicillin (100 units/ml) and Streptomycin ([…]) (Penicillin-Streptomycin liquid) and sodium pyruvate (10 μM final concentration). ^3 H-Thymidine (6.7 Ci/mmole) was diluted in DMEM media without FBS and filter sterilized. An aliquot of this solution was delivered to each culture well to a final concentration of ^3 H-thymidine of 0.4 μCi per well (2 μCi/ml).
Test Preparations: Solutions of the test compound were made on the day before incubation. These compounds were solubilized in either ethanol or DMSO at a concentration of 100 mM containing 0.1% FBS. The solutions were filter sterilized and then sterile serial dilutions were performed with DMEM media containing 0.1% FBS.
Osteoblast line cells were plated into 96 well culture plates, 1600 cells in 100 μL per well in DMEM with 25 mM Hepes Buffer, L-Glutamine, D-Glucose (4.5 gm/L) supplemented with 10% fetal bovine sera, Penicillin (100 units/mL) and Streptomycin (100 μg/mL) and sodium Pyruvate (10 μM final concentration). The media was replaced with DMEM containing no FBS and the cells were then incubated for an additional 24 hours. The following day, test compounds were added and screened at concentrations ranging from 10^-10 to 10^-5 M in the Presence of 0.1% FBS. The cells were then incubated an additional 20 hours. At this time 0.4 μ/Ci of 3H-thymidine was added to each culture well and the cells were incubated an additional 4 hours. The cells were then harvested with a Skatron Cell Harvester onto a glass fiber filter and washed with water, %5 trichloroacetic acid (TCA) and then 95% ethanol. The filters were then processed and counted on the LKB beta plate scintillation counter.

bone protein = experiment: In vivo [3H]Proline incorporation into bone protein, bone mitogen activity in the aged Fisher 344 rat; set-up: species or system rat (female Fisher 344); details: daily intraperitoneal, sesame oil
Description: (§1) Pharmacology of the Ethenesulfonyl Fluoride Compounds--[…] Bone Mitogen Activity in the Aged Fisher 344 Rat
(§2) Animals: Female Fisher 344 rats, 12 months of age, were housed in climate controlled light/dark (12-hour cycle) rooms and given food and water ad libitum.
(§3) Test Compounds: The test compounds were suspended in sesame oil and administered daily via intraperitoneal injections; vehicle treated rats were administered sesame oil along (2 mL/kg).
In vivo [^3 H]Proline Incorporation: [^3 H]Proline incorporation into bone protein was carried out as previously described (Reddi and Huggins, 1975). [^3 H]Proline was injected intraperitoneally at a dose of 0.5 μCi/g body weight in 0.9% NaCl. Four hours after the injection, rats were bled by cardiac puncture and then killed by CO2 asphyxiation and the tibia removed and the radioactivity quantified as in Example 28.

tibia = experiment: In vivo [3H]Tetracycline incorporation into tibia, bone mitogen activity in the aged Fisher 344 rat; set-up: species or system rat (female Fisher 344); details: daily intraperitoneal, sesame oil
Description: as §1, §2, §3
In vivo [^3 H]Tetracycline Incorporation: Tritiated tetracycline, which is rapidly concentrated in the growing skeleton, can be used as a relative measure of bone forming surface in vivo. [^3 H]Tetracycline was injected intraperitoneally at a dose of 0.125 μCi/g body weight in a 0.9% NaCl solution. Two hours after injection, rats were bled by cardiac puncture and then killed by CO2 asphyxiation and the tibia removed and cleaned of tissue and marrow. The tibia are homogenized and digested in 2 N NaOH for 2 hours. The precipitate is washed and then hydrolyzed in 6N Hcl. An aliquot of the resulting supernatant is analyzed for tritiutum.

[3] = cited from earlier work
osteoblasts = details: Farley, et al., Science, 1983; cited from earlier work
[4] = 14C-AP accumulation stimulated by dibutyryl cAMP, read-out: IC50 (dbcAMP)
[5] = 14C-AP accumulation stimulated by histamine, read-out: IC50 (H)

Row | Structure (SMILES) | IC50 [1, 4] | IC50 [1, 5] | % Reduction of Total Acid Output (Gastric Secretion; Dose 40 MPK) | Mouse Osteoblast-line Cell Proliferation [Expressed as a Percent of Control] ([2]; 0.001 μM) | Mouse Osteoblast-line Cell Proliferation [Expressed as a Percent of Control] ([2]; 0.01 μM) | Mouse Osteoblast-line Cell Proliferation [Expressed as a Percent of Control] ([2]; 0.1 μM) | Mouse Osteoblast-line Cell Proliferation [Expressed as a Percent of Control] ([2]; 1.0 μM) | Mouse Osteoblast-line Cell Proliferation [Expressed as a Percent of Control] ([2]; 10 μM) | Percent Incorporation of [3H]Tetracycline of Control (tibia; 50 mg/Kg) | also measured
1 | COc1cc(NCCS(=O)(=O)F)c(C(C)=O)cc1OC [Example 14] |  |  |  | 120.9% of Control | 159.5% of Control | 125.3% of Control | 170.3% of Control | 180.3% of Control | 119.6 Percent Incorporation of Contr | Percent Incorporation of [3H]Proline of Control (bone protein; 15 mg/Kg): 100.7 Percent Incorporation of Contr; Percent Incorporation of [3H]Proline of Control (bone protein; 50 mg/Kg): 118.1 Percent Incorporation of Contr; Percent Incorporation of [3H]Proline of Control (bone protein; 150 mg/Kg): 121.0 Percent Incorporation of Contr
2 | O=S(=O)(F)CCNc1ccc(Cl)cc1 [Example 15] |  |  |  | 129.6% of Control | 119.9% of Control | 123.5% of Control | 93.4% of Control | 106.7% of Control | 125.1 Percent Incorporation of Contr | Percent Incorporation of [3H]Tetracycline of Control (tibia; 15 mg/Kg): 118.0 Percent Incorporation of Contr; Percent Incorporation of [3H]Tetracycline of Control (tibia; 25 mg/Kg): 114.0 Percent Incorporation of Contr
3 | [F-].[Na+] [sodium fluoride, Sodium fluoride] |  |  |  |  |  |  |  |  |  | rate of bone fracture ([3]; fluoride treatment, Riggs, et al., N. Engl. J. Med., 1982): significantly decreased; adverse reactions ([3]; in vivo): gastrointestinal side effects (nausea, vomiting, diarrhea and bleeding) and rheumatic complications (synovitis and plantar fascial syndrome); bone formation and bone mass ([3]; osteoporosis): increases bone formation and leads to an increase in bone mass in osteoporosis; proliferation and activity of bone forming cells, osteoblasts (osteoblasts): causes proliferation and increases the activity of bone forming cells, osteoblasts

More lines, main results first:

Row | IC50 [1, 4] | IC50 [1, 5] | Structure (SMILES) | % Reduction of Total Acid Output (Gastric Secretion; Dose 40 MPK) | Mouse Osteoblast-line Cell Proliferation [Expressed as a Percent of Control] ([2]; 0.001 μM) | Mouse Osteoblast-line Cell Proliferation [Expressed as a Percent of Control] ([2]; 0.01 μM) | Mouse Osteoblast-line Cell Proliferation [Expressed as a Percent of Control] ([2]; 0.1 μM) | Mouse Osteoblast-line Cell Proliferation [Expressed as a Percent of Control] ([2]; 1.0 μM) | Mouse Osteoblast-line Cell Proliferation [Expressed as a Percent of Control] ([2]; 10 μM) | Percent Incorporation of [3H]Tetracycline of Control (tibia; 50 mg/Kg) | also measured
4 | 310 nM | 160 nM | O=S(=O)(CCNc1ccc(Cl)c(C(F)(F)F)c1)NCCCOc1cccc(CN2CCCCC2)c1 [Example 9, 2-[(4-Chloro-3-trifluoromethylphenyl)amino]-N-[3-[3-(piperidinomethyl)phenoxy]propyl]ethanesulfonamide] | 24.7% |  |  |  |  |  |  | 
5 | 1820 nM | 920 nM | O=S(=O)(CCNc1ccc(F)cc1)NCCCOc1cccc(CN2CCCCC2)c1 [Example 2, 2-[(4-Fluorophenyl)amino]-N-[3-[3-(piperidinomethyl)phenoxy]propyl]ethanesulfonamide] | 22.1% |  |  |  |  |  |  | 
6 | 460 nM | 58 nM | CC1CCN(Cc2cccc(OCCCNS(=O)(=O)CCNc3ccc(Cl)c(Cl)c3)c2)CC1 [Example 11, 2-[(3,4-Dichlorophenyl)amino]-N-[3-[3-[(4-methylpiperidin-1-yl)methyl]-phenoxy]propyl]ethanesulfonamide] |  |  |  |  |  |  |  | % Reduction of Total Acid Output (Gastric Secretion; Dose 20 MPK): 29.0%
